Values quoted from earlier work in patent US8431154B2, “Oral dosage form containing a PDE 4 inhibitor as an active ingredient and polyvinylpyrrolidone as excipient” (Takeda GmbH, priority 2002, dated 2013).

Details: as referred to for U.S. Pat. No. 5,286,494

COc1ccc(C2CNC(=O)C2)cc1OC1CCCC1 (stereo not shown) [Rolipram]
solubility: solubility is slight
